Results on five molecules are retold here after ChEMBL document CHEMBL3046257, “Response of sweet maize (Zea mays L.) hybrids to halosulfuron” (Crop Prot, 2008).

The subject of series [1] is Zea mays. The experiment in a line: Toxicity in Zea mays (maize) assessed as plant height relative to untreated control. The class given is organism-based. The note with it: in vivo.
The subject of series [2] is Zea mays. The experiment in a line: Toxicity in Zea mays (maize) assessed as reduction in cob size relative to untreated control. The class given is organism-based. Also noted: scale not given: the % may be the effect or the level left. The settings on record: in vivo.

For `CC(C)N1C(=O)c2ccccc2NS1(=O)=O` [BENTAZON], the Activity in the series on Zea mays [1] worked out at 100%. In the case of `O=C(O)c1nc(Cl)ccc1Cl` [CLOPYRALID], the Activity in the series on Zea mays [2] stood at 67%. As to `COc1cc(OC)nc(NC(=O)NS(=O)(=O)c2ncccc2C(=O)N(C)C)n1` [NICOSULFURON], the Activity in the series on Zea mays [1] was found to be 100%. `COc1nc(C)nc(NC(=O)NS(=O)(=O)c2ccccc2CCC(F)(F)F)n1` [PROSULFURON]: the Activity in the series on Zea mays [1] came out at 100%.

Consider `COC(=O)c1sccc1S(=O)(=O)NC(=O)Nc1nc(C)nc(OC)n1` [THIFENSULFURON-METHYL], for which the Activity in the series with Zea mays [2] is given as 9%.
